Assay results as given in patent US20100120788A1, “IDENTIFICATION OF POLYNUCLEOTIDES FOR […] OF COMPOUNDS THAT […] WITH AND/OR MODULATE PROTEIN TYROSINE KINASES AND/OR PROTEIN TYROSINE KINASE […] IN PROSTATE CELLS” (Bristol-Myers Squibb Company, priority 2007, published 2010).

Tests used:
HPV7 = experiment: In vitro cell proliferation assay (MTS); assay type: cell-based, human; settings: HPV7 cells
Procedure: (§1) The IC50 for each cell line was assessed in by MTS assays as described in Example 1 (Methods). […] The IC50 unit is μM.
(§2) All cell lines were obtained from the American Type Culture Collection (Manassas, Va.), except DUCaP, which was obtained from Dr. Kenneth Pienta at University of Michigan. PWR1E and MDAPCa2b cells were grown in BRFF-HPC1 serum-free medium (AthenaES, Baltimore, Md.), and all other cells were cultured in RPMI 1640 supplemented with 10% fetal bovine serum, 100 IU/ml penicillin, and […] (Invitrogen, Carlsbad, Calif.). DUCaP cells were maintained in the presence of an immortalized mouse fibroblast cell line, which formed a layer beneath DUCaP cells that easily dislodged. Cells were incubated at 37° C. with circulation of 5% CO2.
(§3) The optimum number of cells to seed in 96-well plates to achieve linearity were determined in pilot experiments. Cells were plated at density of 2000-5000 cells/well into 96-well plates and cultured overnight. Cells were then treated with dasatinib at serially diluted concentrations. Three days later, MTS was added to the medium and quantified on a SPECTRAMAX® photometric plate reader (Molecular Devices, Sunnyvale, Calif.) at 490 nm. The results were plotted against drug concentrations and IC50s were calculated using Prism4 software (GraphPad, San Diego, Calif.). The IC50 was the concentration of dasatinib that would reduce cell proliferation by 50% compared to control. Minimum three independent assays were performed for each cell line. […] In the latter case, the concentration of dasatinib that was able to consistently reduce cell proliferation was used as IC50. […] Dasatinib stock, dissolved in DMSO, was 10 mg/ml.

VCaP = experiment: In vitro cell proliferation assay (MTS); assay type: cell-based, human; settings: VCaP cells
Procedure: as §1, §2, §3

NB26 = experiment: In vitro cell proliferation assay (MTS); assay type: cell-based, human; settings: NB26 cells
Procedure: as §1, §2, §3

MDAPCa2b = experiment: In vitro cell proliferation assay (MTS); assay type: cell-based, human; settings: MDAPCa2b cells
Procedure: as §1, §2, §3

DU145 = experiment: In vitro cell proliferation assay (MTS); assay type: cell-based, human; settings: DU145 cells
Procedure: as §1, §2, §3

W99 = experiment: In vitro cell proliferation assay (MTS); assay type: cell-based, human; settings: W99 cells
Procedure: as §1, §2, §3

LNCaP = experiment: In vitro cell proliferation assay (MTS); assay type: cell-based, human; settings: LNCaP cells
Procedure: as §1, §2, §3

22Rvl = experiment: In vitro cell proliferation assay (MTS); assay type: cell-based, human; settings: 22Rvl cells
Procedure: as §1, §2, §3

RWPE2 = experiment: In vitro cell proliferation assay (MTS); assay type: cell-based, human; settings: RWPE2 cells
Procedure: as §1, §2, §3

NB11 = experiment: In vitro cell proliferation assay (MTS); assay type: cell-based, human; settings: NB11 cells
Procedure: as §1, §2, §3

PWR1E = experiment: In vitro cell proliferation assay (MTS); assay type: cell-based, human; settings: PWR1E cells
Procedure: as §1, §2, §3

HPV10 = experiment: In vitro cell proliferation assay (MTS); assay type: cell-based, human; settings: HPV10 cells
Procedure: as §1, §2, §3

DUCaP = experiment: In vitro cell proliferation assay (MTS); assay type: cell-based, human; settings: DUCaP cells
Procedure: as §1, §2, §3

WPMY1 = experiment: In vitro cell proliferation assay (MTS); assay type: cell-based, human; settings: WPMY1 cells
Procedure: as §1, §2, §3

PC3 = experiment: In vitro cell proliferation assay (MTS); assay type: cell-based, human; settings: PC3 cells
Procedure: as §1, §2, §3

RWPE1 = experiment: In vitro cell proliferation assay (MTS); assay type: cell-based, human; settings: RWPE1 cells
Procedure: as §1, §2, §3

uPA protein = uPA protein level in plasma of mice bearing PC3 xenograft tumors (ELISA); assay type: in vivo, nu/nu athymic mice; settings: 30 mg/kg orally twice a day; following first week of treatment
Procedure: FIG. 5. […] Xenograft tumors were established subcutaneously in nu/nu athymic mice. The mice were divided into three groups each with 8 mice after tumors had reached approximately 200 mg. […] Dasatinib was administered orally twice a day on a 5-day-on 2-day-off schedule for 20 doses. The tumor size measurement and blood sampling were performed prior to treatment and weekly for two weeks after treatment initiation. […] Experiments were performed as described in Example 2.
The mice were divided into three groups each with 8 mice after tumors had reached approximately 200 mg. […] Dasatinib was administered orally twice a day on a 5-day-on 2-day-off schedule for 20 doses. The tumor size measurement and blood sampling were performed prior to treatment and weekly for two weeks after treatment initiation. Tumor weight was determined using the following equation: tumor weight=(length*width^2)/2.

[1] = Homo sapiens, 72 h, MTS, three days, read-out: mean IC50 (μM) to BMS-A
[2] = Homo sapiens, 72 h, MTS, three days, highly resistant: concentration that consistently reduced proliferation used as IC50, read-out: mean IC50 (μM) to BMS-A

With Cc1nc(Nc2ncc(C(=O)Nc3c(C)cccc3Cl)s2)cc(N2CCN(CCO)CC2)n1 [BMS-A, N-(2-chloro-6-methylphenyl)-2-[[6-[4-(2-hydroxyethyl)-1-piperazinyl]-2-methyl-4-pyrimidinyl]amino]-5-thiazolecarboxamide] the Classification (HPV7; based on IC50) was “Sensitive (The cell lines with an IC50 lower than 0.2 μm were defined as sensitive to the compound)”, the IC50 (HPV7; [1]) was 0.127 µM and the IC50 (VCaP; [2]) was 2 µM. For the same compound, the Classification (VCaP; based on IC50) was “Resistant (those having an IC50 above 0.2 μm were considered to be resistant)”, the IC50 (NB26; [1]) was 0.139 µM and the Classification (NB26; based on IC50) was “Sensitive (The cell lines with an IC50 lower than 0.2 μm were defined as sensitive to the compound)”. The IC50 (MDAPCa2b; Homo sapiens, MDA-PCa-2b, 72 h, MTS, three days, highly resistant: concentration that consistently reduced proliferation used as IC50, read-out: mean IC50 (μM) to BMS-A) was 2.5 µM, the Classification (MDAPCa2b; based on IC50) was “Resistant (those having an IC50 above 0.2 μm were considered to be resistant)” and the Classification (DU145; based on IC50) was “Sensitive (The cell lines with an IC50 lower than 0.2 μm were defined as sensitive to the compound)”. The IC50 (DU145; Homo sapiens, DU-145, 72 h, MTS, three days, read-out: mean IC50 (μM) to BMS-A) was 0.057 µM, the IC50 (W99; [1]) was 0.199 µM and the Classification (W99; based on IC50) was “Sensitive (The cell lines with an IC50 lower than 0.2 μm were defined as sensitive to the compound)”. For the same compound, the IC50 (LNCaP; [1]) was 0.068 µM, the Classification (LNCaP; based on IC50) was “Sensitive (The cell lines with an IC50 lower than 0.2 μm were defined as sensitive to the compound)” and the Classification (22Rvl; based on IC50) was “Resistant (those having an IC50 above 0.2 μm were considered to be resistant)”. The IC50 (22Rvl; [2]) was 2 µM, the IC50 (RWPE2; [1]) was 0.151 µM and the Classification (RWPE2; based on IC50) was “Sensitive (The cell lines with an IC50 lower than 0.2 μm were defined as sensitive to the compound)”. The IC50 (NB11; [1]) was 0.163 µM, the Classification (NB11; based on IC50) was “Sensitive (The cell lines with an IC50 lower than 0.2 μm were defined as sensitive to the compound)” and the IC50 (PWR1E; Homo sapiens, PWR-1E, 72 h, MTS, three days, read-out: mean IC50 (μM) to BMS-A) was 0.145 µM. For the same compound, the Classification (PWR1E; based on IC50) was “Sensitive (The cell lines with an IC50 lower than 0.2 μm were defined as sensitive to the compound)”, the Classification (HPV10; based on IC50) was “Sensitive (The cell lines with an IC50 lower than 0.2 μm were defined as sensitive to the compound)” and the IC50 (HPV10; [1]) was 0.058 µM. The Classification (DUCaP; based on IC50) was “Resistant (those having an IC50 above 0.2 μm were considered to be resistant)”, the IC50 (DUCaP; [2]) was 2.5 µM and the IC50 (WPMY1; Homo sapiens, WPMY-1, 72 h, MTS, three days, highly resistant: concentration that consistently reduced proliferation used as IC50, read-out: mean IC50 (μM) to BMS-A) was 2.5 µM. The Classification (WPMY1; based on IC50) was “Resistant (those having an IC50 above 0.2 μm were considered to be resistant)”, the IC50 (PC3; Homo sapiens, PC-3, 72 h, MTS, three days, read-out: mean IC50 (μM) to BMS-A) was 0.051 µM and the Classification (PC3; based on IC50) was “Sensitive (The cell lines with an IC50 lower than 0.2 μm were defined as sensitive to the compound)”. For the same compound, the IC50 (RWPE1; Homo sapiens, RWPE-1, 72 h, MTS, three days, read-out: mean IC50 (μM) to BMS-A) was 0.12 µM, the Classification (RWPE1; based on IC50) was “Sensitive (The cell lines with an IC50 lower than 0.2 μm were defined as sensitive to the compound)” and the “reduction of plasma uPA level” value (uPA protein) was ~30%.
